# Measurements as given in patent US20250367160A1, “USE OF GUAIJAVERIN IN PREPARATION OF EYE PROTECTION PRODUCT” (Innovation Center of Yangtze River Delta, ZJU, priority 2024, published 2025).
# Key:
# [1] = system: human primary retinal Müller cells; experiment: Optical stress (strong white light) model of human primary retinal Müller cells, AlamarBlue cell viability; type: cell-based; conditions: pre-incubation 24 h, 32k Lux strong light 4 h
# Procedure: The human primary Müller cells in a logarithmic growth phase were inoculated at a density of 5,000 cells/well in a 96-well plate and cultured in a 37° C., 5% CO2 incubator for 24 h. The medium was removed by aspirating, and 6 replicate wells were set up for guaijaverin groups. 100 μL of the guaijaverin solution dissolved in DMSO solvent in advance was further diluted in DMEM and added into each well, at final concentrations of 10 μM and 30 μM, respectively. The control group was added with 100 μL of DMEM solution. A laboratory-made strong light irradiation system was used to model optical stress on human retinal primary Müller cells cultured in vitro. A strong light irradiation group was irradiated with 32k Lux of strong light for 4 h, while a weak light irradiation group was irradiated with 5k Lux of weak light for 4 h. Then, the cell viability was detected using the AlamarBlue kit.
# After the cells were stressed by light, the AlamarBlue kit was used to detect cell viability. The cell culture supernatant was discarded, and the cells were washed twice with 100 μL of PBS. 100 μL of AlamarBlue reagent diluted 1:10 with DMEM solution was added, and the cells were incubated in a 37° C., 5% CO2 incubator for 4 h. The fluorescence of each well was read using a microplate reader at an excitation wavelength of 544 nm and an emission wavelength of 590 nm. 2.
# Wild-type AB zebrafish = experiment: Determination of maximum test concentration (MTC) in zebrafish blue light eye damage model; type: in vivo; conditions: 28° C.; for Death count / Development status (phenotype) / Mortality: aqueous, n = 30
# Procedure: Wild-type AB zebrafish at 1 day post-fertilization (1 dpf) were randomly selected and irradiated with blue light after membrane rupture to establish the zebrafish blue light eye damage model. Model zebrafish with desirable development status were selected at 3 dpf and randomly distributed in 6-well plates, with 30 zebrafish in each well (experimental group) were treated. Different concentrations of guaijaverin (concentrations shown in Table 1) were administered aqueously, and a normal control group and a model group were set up, where a volume of each well was 3 mL. After treatment at 28° C. for 1 d, the MTC of guaijaverin on model zebrafish was determined.
# T-AOC = experiment: Mouse retinal optical damage model, plasma total antioxidant capacity (T-AOC); type: in vivo, BALB/c mice; conditions: gavage once a day 10 days, vs model group, FIG. 7
# Procedure: A self-made light box with a length of 108 cm, a width of 50 cm, and a height of 72 cm was used, and the light intensity was measured by a light meter to be 8,500-10,000 Lux. After eye examination, 60 mice with normal eyeballs were selected and randomly divided into a control group, a model group, a lutein group (100 mg/kg), a guaijaverin low-dose group (50 mg/kg), and a guaijaverin high-dose group (100 mg/kg), with 12 mice in each group. Lutein and guaijaverin were suspended in 5% sodium carboxymethylcellulose (CMC-Na) solution and administered by gavage once a day. The mice in the control and model groups were administered by gavage with an equal volume of 5% CMC-Na for 10 consecutive days. 10 days later, the mice in the model group, lutein group, guaijaverin low-dose group, and guaijaverin high-dose group were kept in the dark for 36 h, atropine eye gel was applied to both eyes of the mice to induce pupil dilation, and the mice were placed in the self-made lighting device of 8,000-10,000 Lux (the control group was raised in a normal environment) and given continuous light for 24 h. […]
# The mouse blood was collected in an anticoagulant tube and centrifuged at 3,000 rpm for 10 min at 4° C. to collect the upper plasma. The T-AOC content was determined according to the method provided by the kit manufacturer.
compound,measurement,setting,value
"O=c1c(O[C@@H]2OC[C@H](O)[C@H](O)[C@H]2O)c(-c2ccc(O)c(O)c2)oc2cc(O)cc(O)c12 [Guaijaverin, guaijaverin]",viability of Müller cells after strong light irradiation,"[1]; 10 μM, FIG. 1",significantly restored
same,viability of Müller cells after strong light irradiation,"[1]; 30 μM, FIG. 2",restored to the level under weak light irradiation conditions
same,Death count,"Wild-type AB zebrafish; 125 μg/mL, 1 d",0 per fish
same,Development status (phenotype),"Wild-type AB zebrafish; 125 μg/mL, 1 d",Status similar to that of model
same,Mortality,"Wild-type AB zebrafish; 125 μg/mL, 1 d",0%
same,Death count,"Wild-type AB zebrafish; 150 μg/mL, 1 d",0 per fish
same,Development status (phenotype),"Wild-type AB zebrafish; 150 μg/mL, 1 d",Status similar to that of model
same,Mortality,"Wild-type AB zebrafish; 150 μg/mL, 1 d",0%
same,Dissolution,Wild-type AB zebrafish; 200 μg/mL in fish water,Precipitated
same,Death count,"Wild-type AB zebrafish; 200 μg/mL, 1 d",0 per fish
same,Development status (phenotype),"Wild-type AB zebrafish; 200 μg/mL, 1 d",Status similar to that of model
same,Mortality,"Wild-type AB zebrafish; 200 μg/mL, 1 d",0%
same,Dissolution,Wild-type AB zebrafish; 250 μg/mL in fish water,Precipitated
same,Death count,"Wild-type AB zebrafish; 250 μg/mL, 1 d",0 per fish
same,Development status (phenotype),"Wild-type AB zebrafish; 250 μg/mL, 1 d",Status similar to that of model
same,Mortality,"Wild-type AB zebrafish; 250 μg/mL, 1 d",0%
same,Dissolution,Wild-type AB zebrafish; 500 μg/mL in fish water,Precipitated
same,Death count,"Wild-type AB zebrafish; 500 μg/mL, 1 d",0 per fish
same,Development status (phenotype),"Wild-type AB zebrafish; 500 μg/mL, 1 d",Status similar to that of model
same,Mortality,"Wild-type AB zebrafish; 500 μg/mL, 1 d",0%
same,Dissolution,Wild-type AB zebrafish; 1000 μg/mL in fish water,Precipitated
same,Death count,"Wild-type AB zebrafish; 1000 μg/mL, 1 d",0 per fish
same,Development status (phenotype),"Wild-type AB zebrafish; 1000 μg/mL, 1 d",Status similar to that of model
same,Mortality,"Wild-type AB zebrafish; 1000 μg/mL, 1 d",0%
same,Dissolution,Wild-type AB zebrafish; 2000 μg/mL in fish water,Precipitated
same,Death count,"Wild-type AB zebrafish; 2000 μg/mL, 1 d",0 per fish
same,Development status (phenotype),"Wild-type AB zebrafish; 2000 μg/mL, 1 d",Status similar to that of model
same,Mortality,"Wild-type AB zebrafish; 2000 μg/mL, 1 d",0%
same,MTC (maximum test concentration),"Wild-type AB zebrafish; model zebrafish, 1 d",150 µg/mL
same,plasma T-AOC level,T-AOC; high-dose 100 mg/kg,significantly increase the T-AOC level
same,plasma T-AOC level,T-AOC; low-dose 50 mg/kg,significantly increase the T-AOC level
